The results in this text go back to ChEMBL document CHEMBL1681753, “Discovery of new inhibitor for PDE3 by virtual screening” (Bioorg Med Chem Lett, 2011).

The subject of assay [1] is C3H 10T1/2. The assay can be described thus: Induction of lipolysis in mouse C3H10T1/2 assessed as glycerol concentration at 10 uM relative to control. The class given is functional.
Assay [2] relates to C3H 10T1/2. Nature of the assay: Induction of lipolysis in mouse C3H10T1/2 assessed as glycerol concentration. The class given is functional, cell-based.
Assay [3] concerns Adipocyte. Nature of the assay: Induction of lipolysis in human Adipocyte assessed as glycerol concentration at 10 uM relative to control. The class given is functional.
Assay [4] relates to 3T3-L1. The assay can be described thus: Effect on adipogenesis in mouse 3T3L1 cells assessed as FABP4 mRNA expression by RT-PCR method. The class given is functional, cell-based.
For assay [5], the system named is 3T3-L1. Nature of the assay: Effect on adipogenesis in mouse 3T3L1 cells assessed as cellular lipid content by Oil red O staining. The class given is functional, cell-based.
Assay [6] addresses cGMP-inhibited 3',5'-cyclic phosphodiesterase 3A (Homo sapiens, UniProt Q14432). Nature of the assay: Inhibition of human recombinant PDE3A.
Assay [7] deals with 3T3-L1. Nature of the assay: Effect on adipogenesis in mouse 3T3L1 cells assessed as adiponectin mRNA expression by RT-PCR method. The class given is functional, cell-based.
The target of assay [8] is cGMP-inhibited 3',5'-cyclic phosphodiesterase 3B (Homo sapiens, UniProt Q13370). Nature of the assay: Inhibition of human recombinant PDE3B.
For assay [9], the system named is 3T3-L1. Nature of the assay: Effect on adipogenesis in mouse 3T3L1 cells assessed as PPARgamma mRNA expression by RT-PCR method. The class given is functional, cell-based.
Assay [10] relates to 3T3-L1. The assay can be described thus: Effect on adipogenesis in mouse 3T3L1 cells assessed as G3PD mRNA expression by RT-PCR method. The class given is functional, cell-based.

A word on the EC50: it is the concentration giving half of the maximal effect. The IC50 is the concentration needed to halve the response being measured.

Activity calls are given as the source filed them. The calls are words filed in the database; no cut-off is given here.

cGMP-inhibited 3',5'-cyclic phosphodiesterase 3B, sequence (Q13370 whole entry): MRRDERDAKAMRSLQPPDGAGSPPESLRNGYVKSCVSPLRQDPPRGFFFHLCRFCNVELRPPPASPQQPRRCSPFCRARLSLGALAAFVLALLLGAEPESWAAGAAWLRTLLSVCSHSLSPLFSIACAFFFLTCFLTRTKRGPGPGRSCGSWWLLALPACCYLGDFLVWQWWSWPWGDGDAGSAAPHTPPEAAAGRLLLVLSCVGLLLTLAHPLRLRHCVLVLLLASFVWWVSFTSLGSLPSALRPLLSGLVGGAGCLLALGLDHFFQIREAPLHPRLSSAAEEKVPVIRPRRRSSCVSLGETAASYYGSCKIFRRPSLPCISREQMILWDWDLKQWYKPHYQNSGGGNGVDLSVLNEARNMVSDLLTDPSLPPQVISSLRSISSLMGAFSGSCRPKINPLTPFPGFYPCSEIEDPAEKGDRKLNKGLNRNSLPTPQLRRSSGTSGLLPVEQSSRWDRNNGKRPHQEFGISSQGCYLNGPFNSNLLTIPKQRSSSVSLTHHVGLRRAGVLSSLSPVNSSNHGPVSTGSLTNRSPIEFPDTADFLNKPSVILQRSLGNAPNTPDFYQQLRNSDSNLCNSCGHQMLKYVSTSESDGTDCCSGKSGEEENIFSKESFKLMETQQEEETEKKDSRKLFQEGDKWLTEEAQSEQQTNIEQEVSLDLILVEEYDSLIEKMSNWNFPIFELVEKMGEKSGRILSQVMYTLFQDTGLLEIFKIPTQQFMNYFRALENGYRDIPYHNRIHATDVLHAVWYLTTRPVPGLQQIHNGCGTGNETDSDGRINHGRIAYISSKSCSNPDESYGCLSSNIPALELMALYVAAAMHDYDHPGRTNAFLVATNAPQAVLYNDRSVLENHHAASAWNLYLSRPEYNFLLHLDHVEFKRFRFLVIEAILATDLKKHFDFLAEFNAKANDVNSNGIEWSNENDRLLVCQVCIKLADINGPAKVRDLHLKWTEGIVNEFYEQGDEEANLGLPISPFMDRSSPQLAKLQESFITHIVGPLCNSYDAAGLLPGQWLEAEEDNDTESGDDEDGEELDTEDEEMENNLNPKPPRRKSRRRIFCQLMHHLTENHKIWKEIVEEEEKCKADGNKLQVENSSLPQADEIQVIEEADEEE
cGMP-inhibited 3',5'-cyclic phosphodiesterase 3A, sequence (Q14432 whole entry): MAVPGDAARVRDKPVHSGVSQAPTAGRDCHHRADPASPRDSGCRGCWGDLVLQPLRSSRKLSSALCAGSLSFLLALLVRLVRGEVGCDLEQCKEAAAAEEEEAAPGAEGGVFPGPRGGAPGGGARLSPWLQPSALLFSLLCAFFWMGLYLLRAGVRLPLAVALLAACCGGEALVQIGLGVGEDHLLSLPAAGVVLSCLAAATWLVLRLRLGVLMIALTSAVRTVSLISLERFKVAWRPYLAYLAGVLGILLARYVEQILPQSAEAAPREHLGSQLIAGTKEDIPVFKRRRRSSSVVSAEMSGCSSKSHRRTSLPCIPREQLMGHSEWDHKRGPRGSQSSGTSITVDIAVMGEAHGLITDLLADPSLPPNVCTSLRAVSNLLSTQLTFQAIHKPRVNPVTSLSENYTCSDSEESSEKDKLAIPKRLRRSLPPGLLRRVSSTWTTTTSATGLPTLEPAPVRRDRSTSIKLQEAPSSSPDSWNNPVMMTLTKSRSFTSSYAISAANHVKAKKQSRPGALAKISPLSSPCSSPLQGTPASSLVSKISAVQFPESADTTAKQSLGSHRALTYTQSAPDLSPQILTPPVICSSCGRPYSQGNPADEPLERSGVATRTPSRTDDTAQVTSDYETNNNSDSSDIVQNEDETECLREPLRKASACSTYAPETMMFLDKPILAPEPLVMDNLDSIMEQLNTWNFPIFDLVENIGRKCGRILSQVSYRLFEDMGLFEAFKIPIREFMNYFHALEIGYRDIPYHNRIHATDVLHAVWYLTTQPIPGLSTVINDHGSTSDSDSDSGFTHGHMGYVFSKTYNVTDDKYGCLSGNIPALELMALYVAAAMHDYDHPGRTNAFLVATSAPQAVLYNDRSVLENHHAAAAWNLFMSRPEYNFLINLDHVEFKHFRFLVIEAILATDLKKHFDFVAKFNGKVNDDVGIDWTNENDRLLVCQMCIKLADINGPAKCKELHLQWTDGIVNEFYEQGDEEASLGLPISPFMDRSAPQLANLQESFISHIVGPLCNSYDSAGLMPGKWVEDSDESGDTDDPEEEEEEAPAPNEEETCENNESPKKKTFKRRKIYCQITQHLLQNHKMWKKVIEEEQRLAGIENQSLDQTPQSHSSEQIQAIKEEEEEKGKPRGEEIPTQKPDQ

`Cc1ccc(S(=O)(=O)N/N=C2\CC(C)(C)Oc3ccc([N+](=O)[O-])cc32)cc1`: the Activity in assay [1] was 168.4%; in [3], 116.67%. For the same compound, the EC50 in assay [2] came out at 5.2 nM.

With `C/C(=N\NS(=O)(=O)c1ccc(C)cc1)c1ccc2c(c1)C(C)(C)C(=O)N2`, the result in assay [4], in assay [5], in assay [7], in assay [9] and in assay [10] was Active. Also, the IC50 was 14.8 nM in assay [6] and 88.4 nM in assay [8]. The Activity in [1] is on record as 191.7%; in [3], 171.5%. The EC50 in [2] is 8.9 nM.

Take `CC(C)NCC(O)c1ccc(O)c(O)c1` (stereo not given) [ISOPROTERENOL]: the Activity in assay [1] is 291.3%; in assay [3], 214.39%. The EC50 in assay [2] is 19 nM.

Turning to `CC1=NN(S(=O)(=O)c2ccc(C)cc2)C(O)(C(F)(F)F)C1` (stereo not given), the Activity in [1] was 171.3%; in assay [3], 116.67%. In addition, the EC50 in [2] stood at 6.8 nM.

With `CN(C(=O)CCCOc1ccc2[nH]c(=O)ccc2c1)C1CCCCC1` [CILOSTAMIDE], the outcome in assay [4], in [5], in assay [7], in assay [9] and in [10] was Active. In addition, the Activity in [1] came to 247.36%; in assay [3], 192.4%. Further, in assay [8], the IC50 turned out to be 69.1 nM. Besides, in assay [2], the concentration giving a half-maximal response (EC50) amounted to 9.1 nM.

With `CCCC(NS(=O)(=O)c1ccc2c(c1)CCCC(=O)N2)c1cccs1` (stereo not given), the Activity in assay [1] came out at 131.9%; in assay [3] it was 130.2%.
